In a melting point compilation (Tetko et al.; mined from patent text by program, amines drawn as free bases though some values may be those of a salt):

Row | SMILES | melting point
1 | O=C(NC(=O)c1ccccc1Br)Nc1cc(C(F)(F)F)c(Cl)cc1Br | 193 °C
2 | Cc1cn(-c2ccc(N)cc2C(F)(F)F)cn1 | 141 to 143 °C
3 | Cc1cc(OCc2ccccc2)c2cc(C(=O)O)[nH]c2c1 | 178 to 180 °C
4 | O=[N+]([O-])c1ccc(F)c2ccccc12 | 75 to 76 °C
5 | O=C(Cl)c1c(Cl)c(Cl)c(C(F)(F)F)c(Cl)c1Cl | 72 to 76 °C
6 | Nc1c(CC(=O)O)cccc1S(=O)(=O)c1ccccc1 | 218 to 220 °C
7 | Nc1cc(=O)n(Cc2ccc(Cl)c(Br)c2)[nH]1 | 171 to 172 °C
8 | c1ccc2c(c1)C[C@@H]1CCc3ccccc3[C@@H]1O2 (relative stereo) | 71 to 72 °C
9 | CN1C(=O)C(NC(=O)NC23CC4CC(CC(C4)C2)C3)N=C(c2ccccc2)c2ccccc21 (stereo unspecified) | 264 to 265 °C
10 | CCCCCCCCCCCCCCOc1ccc2c(C)c(C(=O)O)oc2c1 | 105 to 108 °C
11 | NS(=O)(=O)c1cc2c(s1)S(=O)(=O)CCN2 | 250 to 252 °C
12 | CCOC(=O)C1=C(COCc2cccnc2)NC(COCc2cccnc2)=C(C(=O)OCC)C1c1ccccc1[N+](=O)[O-] | 142 to 145 °C
13 | CC#CCOc1cc(Oc2ccc(F)c(C(F)(F)F)c2)ncn1 | 90.1 °C
14 | Nn1cnc2cc(C(F)(F)F)ccc21 | 140 to 142 °C
15 | CNC(=S)NCCSCc1csc(N)n1 | 136 to 140 °C
16 | O=C(OC1CCCCCCC1)c1ncn2c1[C@@H]1CCCN1C(=O)c1c(Cl)cccc1-2 | 183 to 184 °C
17 | CNC(=O)ON=C1CCOc2ccccc21 | 123 to 126 °C
18 | O=C(CN1C(=O)C(c2ccccc2)c2ccccc21)NCc1ccccc1 (stereo unspecified) | 182 to 183 °C
19 | CCNc1ccc(Cl)nc1 | 65 to 66 °C
20 | CCOC(=O)c1cnn2c1nc(S)c1cnc3c(cnn3CC)c12 | 238 to 240 °C

More lines, now with the values ahead:

Row | melting point | SMILES
21 | 41 °C | O=C(Nc1ccccc1SCc1ncon1)OCc1ccccc1
22 | 253 to 254 °C | CCOC(=O)c1cnc2c3cc(NC(=O)CC(C)(C)C)ccc3ncn2c1=O
23 | 126 to 127 °C | CC1(C(=O)N2C[C@H](S(=O)(=O)c3ccc(OCC(F)(F)F)cc3C(F)(F)F)C[C@H]2C(=O)NC2(C#N)CC2)CC1
24 | 142 °C | CC(C)C1(Cl)Cc2cc(OCC(=O)O)cc(Cl)c2C1=O (stereo unspecified)
25 | 261 to 262 °C | CC(C)CC(NC(=O)c1ccc(F)cc1SSc1cc(F)ccc1C(=O)NC(CC(C)C)C(=O)O)C(=O)O (stereo unspecified)
26 | 160 to 162 °C | COc1cc2c(cc1Nc1ncc(Cl)c(N[C@@H]3CCCC[C@H]3NS(C)(=O)=O)n1)CCOC(=O)N2C
27 | 181 to 182 °C | COC(=O)c1ccc2cc(-c3ccc(C(=O)OC)c(C45CC6CC(CC(C6)C4)C5)c3)ccc2c1
28 | 126 to 128 °C | CC(C)(CNc1ccc(C2=NNC(=O)CC2)cc1)NCC(O)COc1ccccc1C#N (stereo unspecified)
29 | 106 to 109 °C | CCc1nn(C2CCCC2)c2cc(C(=O)OC)ccc12
30 | 93 to 94 °C | CC(C)(C)OC(=O)N[C@@H](CC1CCCCC1)[C@@H](O)[C@@H](O)CN=[N+]=[N-]
31 | 78 to 80 °C | COc1cc(/C=C/C(=O)CC(=O)C2(C)CC2)ccc1O
32 | 122 to 124 °C | CCOC(=O)c1c(Cn2cncn2)nc2cc(OC)c(OC)cc2c1-c1ccc(O)c(O)c1
33 | 185 to 187 °C | O=C(c1ccccc1)c1cc2c(cc1O)C(C(=O)O)CC2 (stereo unspecified)
34 | 209 to 210 °C | Cc1nc(N)nc(N)c1N1CCN(Cc2ccccc2)CC1
35 | 108 to 109 °C | CCOC(=O)c1c(C)[nH]c(CC)c1C
36 | 296 to 298 °C | O=C(O)c1cn(C2CC2)c2cc(N3CC(O)C3)c(F)cc2c1=O
37 | 83 °C | CC(=O)n1ncc2c(OCC3CO3)cccc21 (stereo unspecified)
38 | > 240 °C | N#CC1=C(C2CCCN2)Nc2n[nH]cc2C1c1cccc2nonc12 (stereo unspecified)
39 | > 350 °C | COc1cc(OC)c2c(=O)[nH]c(-c3ccc(N4CCC(=O)CC4)cc3)nc2n1
40 | 147 to 148 °C | CCOC(=O)C1=C(C)NC(CO)=C(C(=O)OCC)C1c1ccccc1C(F)(F)F (stereo unspecified)
41 | 45 °C | N#CCC(=NC#N)N1CCCC1
